Common to all, as to format: cell-based
Data set [1] addresses T1, VHL (Homo sapiens, UniProt P40337).
T1 construct: expressed in transfected cells
Nature of the data set: VHL HEK-293 BRET Assay (VHL NanoBRET Target Engagement Assay). To be noted: HEK 293 RT VHL-NanoLuc stable cells; read-out: IC50. How it is done:
The VHL NanoBRET™ Target Engagement Assay analyzes the apparent affinity of test compounds for VHL in cells by competitive displacement of a VHL NanoBRET™ tracer reversibly bound to a NanoLuc® VHL fusion protein stably expressed in the cells.
Test compounds were transferred to the assay plate (384 Well White Non-Binding Corning Assay Plates (Corning-3574)) using an Echo 555 Liquid Handler (Labcyte) in 2.5 nL increments and, as appropriate, intermediate stock concentrations of compounds, in order to prepare a titration series. 50 nL of control compound (10 mM; parental unlabeled VHL antagonist; see structure below) and 50 nL of DMSO (negative control) were dispensed into the appropriate control wells. DMSO was backfilled to a final volume of 50 nL as required. 50 nl per well of 1 mM VHL NanoBRET™ Tracer in DMSO (NanoBRET™ Tracer-PEG2-590 (see structure below)) was transferred into each well using an Echo 555 (ultimately yielding a final concentration of 1 uM). HEK 293 RT VHL-NanoLuc® stable cells were cultured in DMEM High Glucose with Pyruvate, 10% fetal bovine serum, 2 mg/mL of Geneticin Selective Antibiotic (50 mg/mL) and 2 mM HEPES (1 M). Cells were seeded in Opti-MEM (Life Technologies-11058-021), 1.7×10^5 cells/mL, 40 μl per well into the assay plate, centrifuged at 500 rpm for 30 seconds and incubated for 2 hours. Max Signal control wells consisted of DMSO only treated wells. Minimum Signal control wells contained of 10 uM parental unlabeled VHL antagonist (control compound—see structure below). 3× Complete Substrate plus Inhibitor Solution was prepared in Opti-MEM (consists of a 1:166 dilution of NanoBRET™ Nano-Glo® Substrate plus a 1:500 dilution of Extracellular NanoLuc® Inhibitor in Opti-MEM), and 20 ul was dispensed into each well of the 384-well plate and centrifuged at 1000 rpm for 1 minute, then incubated for 2 minutes at room temperature. Background Signal control wells were prepared without tracer for background correction steps.
Plates were read using a PerkinElmer Envision Reader (model 2104-0020) equipped with Luminescence option (Mirror: BRET2 Enh (PE Barcode 659), Emission Filter: Omega 610LP (Barcode 504), 2nd Emission Filter: Umbelliferone 460 (Barcode 207), Measurement height: 6.5 mm, Measurement time: 1 s). The raw BRET ratio values were calculated by dividing the acceptor emission value (610 nm) by the donor emission value (460 nm) for each sample. To correct for background, the BRET ratio in the absence of tracer (average of no-tracer control samples) was subtracted from the BRET ratio of each sample. Raw BRET units were converted to milliBRET units (mBU) by multiplying each raw BRET value by 1,000. The normalized NanoBRET™ signal was calculated relative to the Max Signal control wells (DMSO treated control wells) and the Minimum Signal control wells. Percentage inhibition was calculated relative to the Minimum Signal control and Maximum Signal control wells. IC50 values were derived by four parameter curve fitting using the Robust method.

Data set [2] concerns NCI-H23. Kind of data set: Cell Viability Assay (CellTiter-Glo). The settings on record: 5 days.
Method: (§1) Cell lines were cultured in RPMI-1640, 5% fetal bovine serum, and 2 mM glutamine in a humidified incubator maintained at 37° C. with 5% CO2. Cells were assessed with a Vi-CELL Cell Viability Analyzer (Beckman Coulter; Brea, CA); viability of at least 90% was required for screening. A Multidropä Combi Reagent Dispenser (Thermo Scientific; Waltham, MA) was used to plate cells into Falcons^â 384-well, black, clear-bottom plates (Catalog No. 353962; Corning; Tewksbury, MA) using seeding densities previous determined to achieve approximately 80% confluence at the final time point of the assay. The compounds were prepared at 1000× in advance using an Echo 555 liquid handler (Labcyte; Sunnyvale, CA) and stored in −80° C. until the day of compound addition. On the following day, cells were treated with compounds at final assay concentration 1 uM and 10 uM using a Bravo Automated Liquid-Handling Platform (Agilent; Santa Clara, CA). After 5 days, 25 mL CellTiter-Glo^â reagent was added using a MultiFloä Microplate Dispenser (BioTek; Winooski, VT). Cell lysis was induced by mixing for 30 minutes on an orbital shaker; plates were then incubated at room temperature for 10 minutes to stabilize the luminescent signal. Luminescence was read by a 2104 EnVision^â Multilabel Plate Reader (PerkinElmer; Waltham, MA).
(§2) The data was processed using Genedata Screener^â, Version 15 (Genedata; Basel, Switzerland) to assess compound effects on viability. Compound treated wells were normalized to the median value of 14 DMSO control wells on the same 384 well plate.
The target of data set [3] is T1, VHL. Kind of data set: VHL HEK-293 BRET Assay (VHL NanoBRET Target Engagement Assay). To be noted: IC50 values measured in the presence of digitonin; HEK 293 RT VHL-NanoLuc stable cells; read-out: IC50 + Digi (μM)*.
Data set [4] has as its system ABC-1. Nature of the data set: Cell Viability Assay (CellTiter-Glo). The settings on record: 5 days.
Method: as §1, §2

Like-named read-outs stand apart in the source and are kept apart here.

These results are taken from US20230295145A1, “PYRROLIDINE DERIVATIVES AND METHODS OF USE” (Genentech, Inc., priority 2020, published 2023).

T1 sequence (P40337 whole entry): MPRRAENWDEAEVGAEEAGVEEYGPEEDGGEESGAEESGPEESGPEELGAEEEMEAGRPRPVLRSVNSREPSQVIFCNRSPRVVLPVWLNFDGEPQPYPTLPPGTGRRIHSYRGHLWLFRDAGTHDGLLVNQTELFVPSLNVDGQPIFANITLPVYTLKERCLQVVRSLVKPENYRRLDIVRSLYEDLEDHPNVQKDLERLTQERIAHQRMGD

Take `CC(C)(C)[C@@H](C(=O)N1C[C@H](O)C[C@H]1C(=O)NCCC1(O)CN(C(c2ccccc2)c2ccccc2)C1)n1cc(C2CC2)nn1` [Compound 449, (2S,4R)-N-[2-(1-benzhydryl-3-hydroxy-azetidin-3-yl)ethyl]-1-[(2S)-2-(4-cyclopropyltriazol-1-yl)-3,3-dimethyl-butanoyl]-4-hydroxy-pyrrolidine-2-carboxamide]: the IC50 came to 802 nM in data set [1] and 2.17 µM in data set [3]. In addition, the “Normalized viability % DMSO” value in data set [2] (10 μM) was 43.4 % DMSO.

In the case of `CC(C)(C)[C@@H](C(=O)N1C[C@H](O)C[C@H]1C(=O)NCCCn1cnc2c(N)ncnc21)n1cc(C2CC2)nn1` [Compound 1129, (2S,4R)-N-[3-(6-aminopurin-9-yl)propyl]-1-[(2S)-2-(4-cyclopropyltriazol-1-yl)-3,3-dimethyl-butanoyl]-4-hydroxy-pyrrolidine-2-carboxamide], the “Normalized viability % DMSO” value in data set [4] (10 μM) amounted to 4.2 % DMSO. Moreover, the IC50 was 17300 nM in data set [1] and 2.33 µM in data set [3].

Consider `CNC(=O)[C@@H]1C[C@@H](O)CN1C(=O)[C@@H](n1cc(COc2ccccc2F)nn1)C(C)(C)C` [Compound 729, (2S,4R)-1-[(2S)-2-[4-[(2-fluorophenoxy)methyl]triazol-1-yl]-3,3-dimethyl-butanoyl]-4-hydroxy-N-methyl-pyrrolidine-2-carboxamide], for which the figures for the “Normalized viability % DMSO” value in data set [4] (10 μM) and in data set [2] (1 μM) were 35.8 % DMSO and 7.4 % DMSO, respectively. Besides, the IC50 in data set [1] was found to be 960 nM; in data set [3], 1.48 µM.

For the molecule `CNC(=O)[C@@H]1C[C@@H](O)CN1C(=O)[C@@H](n1cc(Cn2cnc3cc(C)c(C)cc32)nn1)C(C)(C)C` [Compound 914, (2S,4R)-1-[(2S)-2-[4-[(5,6-dimethylbenzimidazol-1-yl)methyl]triazol-1-yl]-3,3-dimethyl-butanoyl]-4-hydroxy-N-methyl-pyrrolidine-2-carboxamide], the half-maximal inhibitory concentration (IC50) is 5460 nM in data set [1] and 3 µM in data set [3]. Also, the “Normalized viability % DMSO” value in data set [2] (10 μM) worked out at 44.5 % DMSO.

Take `CC(C)(C)[C@@H](C(=O)N1C[C@H](O)C[C@H]1C(=O)N[C@@H]1C[C@@H](c2ccccc2)Oc2ccccc21)n1cc(C2CC2)nn1` [Compound 343, (2S,4R)-1-[(2S)-2-(4-cyclopropyltriazol-1-yl)-3,3-dimethyl-butanoyl]-4-hydroxy-N-[(2S,4R)-2-phenylchroman-4-yl]pyrrolidine-2-carboxamide]: the “Normalized viability % DMSO” value in data set [4] (10 μM) was 44.1 % DMSO. In addition, the half-inhibitory concentration (IC50) in data set [1] stood at 15.6 nM; in data set [3], 0.0321 µM.

As to `CN1CC(CCNC(=O)[C@@H]2C[C@@H](O)CN2C(=O)[C@@H](n2cc(C3CC3)nn2)C(C)(C)C)CC1=O` (stereo partly drawn) [Compound 236, (2S,4R)-1-[(2S)-2-(4-cyclopropyltriazol-1-yl)-3,3-dimethyl-butanoyl]-4-hydroxy-N-[2-(1-methyl-5-oxo-pyrrolidin-3-yl)ethyl]pyrrolidine-2-carboxamide], the “Normalized viability % DMSO” value in data set [2] (1 μM) turned out to be 18.7 % DMSO.

On to `CC(C)(C)[C@@H](C(=O)N1C[C@H](O)C[C@H]1C(=O)NCC12CCCC(C1)C(=O)N2)n1cc(C2CC2)nn1` (stereo partly drawn) [Compound 110, (2S,4R)-1-[(2S)-2-(4-cyclopropyltriazol-1-yl)-3,3-dimethyl-butanoyl]-4-hydroxy-N-[(7-oxo-6-azabicyclo[3.2.1]octan-5-yl)methyl]pyrrolidine-2-carboxamide], for which the “Normalized viability % DMSO” value in data set [2] (1 μM) amounted to 18.9 % DMSO.

In the case of `CC(C)(C)[C@@H](C(=O)N1C[C@H](O)C[C@H]1C(=O)NCc1ncc(-c2ccccc2)s1)n1cc(C2CC2)nn1` [Compound 140, (2S,4R)-1-[(2S)-2-(4-cyclopropyltriazol-1-yl)-3,3-dimethyl-butanoyl]-4-hydroxy-N-[(5-phenylthiazol-2-yl)methyl]pyrrolidine-2-carboxamide], the “Normalized viability % DMSO” value in data set [4] (10 μM) is 45.3 % DMSO. The IC50 in data set [1] was 10 nM; in data set [3], 0.0142 µM.

For `CNC(=O)C1CC(O)CN1C(=O)[C@@H](n1cc(C2CCC(C(=O)OC)CC2)nn1)C(C)(C)C` (stereo in doubt) [Compound 829, Methyl 4-[1-[(1S)-1-[(2R,4S)-4-hydroxy-2-(methylcarbamoyl)pyrrolidine-1-carbonyl]-2,2-dimethyl-propyl]triazol-4-yl]cyclohexanecarboxylate], the “Normalized viability % DMSO” value in data set [4] (1 μM) came to 10.6 % DMSO. Moreover, the IC50 came to 2910 nM in data set [1] and 5.86 µM in data set [3].

With `CC(C)(C)[C@@H](C(=O)N1C[C@H](O)C[C@H]1C(=O)NC1CCc2c(Cl)cc(Cl)cc21)n1cc(C2CC2)nn1` (stereo partly drawn) [Compound 169, (2S,4R)-1-[(2S)-2-(4-cyclopropyltriazol-1-yl)-3,3-dimethyl-butanoyl]-N-(4,6-dichloroindan-1-yl)-4-hydroxy-pyrrolidine-2-carboxamide], the results for the IC50 in data set [1] and in data set [3] were 1810 nM and 2.93 µM, respectively. For the same molecule, in data set [2] (10 μM), the “Normalized viability % DMSO” value came out at 39.3 % DMSO.

With `CCc1onc(C)c1CNC(=O)[C@@H]1C[C@@H](O)CN1C(=O)[C@@H](n1cc(C2CC2)nn1)C(C)(C)C` [Compound 405, (2S,4R)-1-[(2S)-2-(4-cyclopropyltriazol-1-yl)-3,3-dimethyl-butanoyl]-N-[(5-ethyl-3-methyl-isoxazol-4-yl)methyl]-4-hydroxy-pyrrolidine-2-carboxamide], the “Normalized viability % DMSO” value in data set [4] (10 μM) worked out at 7.6 % DMSO. The IC50 in data set [1] worked out at 2340 nM; in data set [3], 3.18 µM.

`CC[S+]([O-])C1CCCCC1NC(=O)[C@@H]1C[C@@H](O)CN1C(=O)[C@@H](n1cc(C2CC2)nn1)C(C)(C)C` (stereo partly drawn) [Compound 554, (2S,4R)-1-[(2S)-2-(4-cyclopropyltriazol-1-yl)-3,3-dimethyl-butanoyl]-N-(2-ethylsulfinylcyclohexyl)-4-hydroxy-pyrrolidine-2-carboxamide]: the “Normalized viability % DMSO” value in data set [4] (10 μM) stood at 38.2 % DMSO. In addition, the IC50 came to 17200 nM in data set [1] and 22.2 µM in data set [3].

As to `CC(C)(C)[C@@H](C(=O)N1C[C@H](O)C[C@H]1C(=O)NC(CO)c1ccc(Br)c(F)c1)n1cc(C2CC2)nn1` (stereo partly drawn) [Compound 174, (2S,4R)-N-[1-(4-bromo-3-fluoro-phenyl)-2-hydroxy-ethyl]-1-[(2S)-2-(4-cyclopropyltriazol-1-yl)-3,3-dimethyl-butanoyl]-4-hydroxy-pyrrolidine-2-carboxamide], in data set [4] (10 μM), the “Normalized viability % DMSO” value turned out to be 50.7 % DMSO. The half-inhibitory concentration (IC50) came out at 11.4 nM in data set [1] and 0.0152 µM in data set [3].

In the case of `Cn1c(CCNC(=O)[C@@H]2C[C@@H](O)CN2C(=O)[C@@H](n2cc(C3CC3)nn2)C(C)(C)C)nc2c(F)cccc21` [Compound 1131, (2S,4R)-1-[(2S)-2-(4-cyclopropyltriazol-1-yl)-3,3-dimethyl-butanoyl]-N-[2-(4-fluoro-1-methyl-benzimidazol-2-yl)ethyl]-4-hydroxy-pyrrolidine-2-carboxamide], in data set [2] (1 μM), the “Normalized viability % DMSO” value stood at 21.7 % DMSO.

With `CNC(=O)[C@@H]1C[C@@H](O)CN1C(=O)[C@@H](n1cc(-c2cnc(F)cc2C)nn1)C(C)(C)C` [Compound 792, (2S,4R)-1-[(2S)-2-[4-(6-fluoro-4-methyl-3-pyridyl)triazol-1-yl]-3,3-dimethyl-butanoyl]-4-hydroxy-N-methyl-pyrrolidine-2-carboxamide], the “Normalized viability % DMSO” value in data set [4] (10 μM) was 13.9 % DMSO. The 50% inhibitory concentration (IC50) was found to be 1920 nM in data set [1] and 2.46 µM in data set [3].

With `CC(C)(C)[C@@H](C(=O)N1C[C@H](O)C[C@H]1C(=O)NCC1CCS(=O)(=O)c2ccccc21)n1cc(C2CC2)nn1` (stereo partly drawn) [Compound 420, (2S,4R)-1-[(2S)-2-(4-cyclopropyltriazol-1-yl)-3,3-dimethyl-butanoyl]-N-[(1,1-dioxo-3,4-dihydro-2H-thiochromen-4-yl)methyl]-4-hydroxy-pyrrolidine-2-carboxamide], the half-maximal inhibitory concentration (IC50) turned out to be 3890 nM in data set [1] and 4.3 µM in data set [3]. For the same molecule, the “Normalized viability % DMSO” value in data set [2] (1 μM) is given as 10.8 % DMSO.
